# Assays:
# Assay type in all cases: physicochemical
# [1] = Encapsulation efficacy of siRNA in crosslinked HSA NSs (Trypsin digestion, RP-HPLC); conditions: 200 μg siRNA
# Procedure: For encapsulation of siRNA inside crosslinked HSA NSs, siRNA was added to HSA solution prior the addition of desolvating phase. The rest of procedure was made exactly in the same manner detailed above, when instead of using DDW, RNAse free water (RNFW) was used. After crosslinking, the NSs were washed and the total ultrafiltrate was collected, lyophilized and reconstituted with 500 μl RNFW, from which, 160 ul were injected to HPLC. Since partial degradation of free siRNA in the ultrafiltrate was observed, the preferred way to determine siRNA content in the NSs is to directly determine siRNA content in the particle (after its digestion), and not based on the free siRNA (un-encapsulated) in the ultrafiltrate.
# The total weight of HSA per 100 μl of suspension (after wash) was quantified gravimetrically. Then 1-2 mg of washed HSA NPs encapsulating siRNA was diluted to 1 ml with RNase free PBS buffer (adjusted to pH=7.5 using 0.5 M NaOH solution) and digested with 20 to 150 μg Trypsin for 60, 90 or 180 min, at dark and under mild shaking at 37° C., till a clear solution was formed. In case sample containing DOTAP, Heparin (90 μg) was added to the aqueous phase, 0 or 60 min after the addition of Trypsin. The free siRNA quantity was determined using RP-HPLC, in the presence of Trypsin or without it.
# In order to determine the encapsulation efficacy of siRNA in the crosslinked HSA NSs, the washed NSs were digested with Trypsin till a clear solution was formed and the total siRNA content was detected using RP-HPLC and calculated based on AUC. According to the protocol we have developed in our lab (for detailing see section E), the reliability of such method in quantification the released siRNA, is highly efficient (FIGS. 5-6). A few trends can be concluded; In the presence of DOTAP, the best encapsulation (˜40%) accepted at the low basic pH (pH 8 and 7). At pH 9, removal of the DOTAP from NSs, have reduced encapsulation efficacies. This effect is more pronounced when the non cholesterol modified siRNA (GFP-siRNA) is used.
# [2] = Melting point measurements for siRNAs (UV 260 nm); conditions: buffer 48 mM Tris, 96 mM NaCl, pH 7.1
# Procedure: Melting point measurements for different siRNAs (21-mer) used were performed on a UV-visible spectrophotometer (Cary 300) at 260 nm, by elevating the sample temperature from 20° C. to 85° C. at rate of 1° C./min. All siRNAs were dissolved in buffer (48 mM Tris, 96 mM NaCl, pH 7.1) to obtain a concentration of 4-10 ng/μl.
# The temperature at which the 50% of siRNA strands are denatured is called the melting temperature, or Tm. The Tm for various siRNAs (21 mers) used in our research, was measured and found to be: 78, 77 and 72° C. for GFP-siRNA, Chol-GFP-siRNA and EGFR-siRNA, respectively. With all examined siRNAs, beginning of separation was already observed at 60° C. (data not shown).
# [3] = Integrity evaluation of free siRNA exposed to pH 7, 8, 9 with or without glutaraldehyde (HPLC, PAGE 8%); conditions: for integrity of free siRNA in the presence of the cross linker (glutaraldehyde): 3 hr, all the pH tested (7, 8, 9), 'heavy' specie runs slower at the gel
# Procedure: FIGS. 16A-16B are gel retardation assays (PAGE 8%) for evaluation of free siRNA integrity after exposure to different conditions. Integrity evaluation was made for GFP-siRNA (FIG. 16A) and Chol-GFP-siRNA (FIG. 16B). Lane No. 1—ladder, Lane No. 2, 3—controls with 100 and 50 ng of untreated siRNA respectively. Lanes 4, 6 and 8, with siRNA exposed to pH 7, 8 and 9, respectively. Lanes 5, 7 and 9, with siRNA exposed to pH 7, 8 and 9 in the presence of glutaraldehyde (0.014% (v/v)), respectively.
# (§1) For siRNA integrity (stability) evaluation 8% (19:1) native polyacrylamide gels (PAGE) was used. Electrophoresis was carried out at 200V for 50 min, in Tris-Borate-EDTE (TBE) as running buffer. For siRNA staining, 0.01% of EtBr was used. Gels were visualized under a UV transilluminator.
# During the primal encapsulation process of siRNA in the HSA NSs it has been exposed to materials with distractive potential such as basic pH conditions and the presence of cross linker (glutaraldehyde) who can interact with the primal amine present in the nucleic bases: Guanine, Adenine or Cytosine. Hens, the need in siRNA integrity evaluation arise. First, integrity evaluation of the free siRNA (GFP-siRNA and Chol-GFP-siRNA) was made. The siRNAs were exposed to the same conditions used for production of crosslinked HSA NSs (3 hr at aqueous solutions with pH of 7, 8 or 9 with or without the presence of glutaraldehyde), then a fraction from each sample was analyzed using HPLC (data not shown) and gel retardation assay (PAGE 8%) (FIG. 16).
# [4] = Integrity evaluation of siRNA extracted from crosslinked HSA NSs and from NCs (HPLC, PAGE 8%); conditions: compared with untreated siRNA
# Procedure: FIGS. 17A-17B are gel retardation assays (PAGE 8%) for evaluation of extracted siRNA. Integrity evaluation was made for GFP-siRNA (FIG. 17A) and Chol-GFP-siRNA (FIG. 17B). Lane No. 1—ladder, Lane No. 2—control with 100 ng of untreated siRNA. Lanes 3-8 with siRNA extracted from primal crosslinked HSA NSs (produced in different pH conditions), Lanes 9 and 10, with siRNA extracted from NCs loaded with the primal crosslinked HSA.
# as §1
# Later, siRNAs were extracted from the primal crosslinked HSA NSs (produced in different pH conditions), and their integrity was assessed using HPLC (data not shown) and gel retardation assay (PAGE 8%) (FIG. 17). Furthermore, the stability of siRNAs extracted from NCs loaded with the primal crosslinked HSA was also examined ([…]—lanes No. 9 & 10), since secondary encapsulation process performed under heat (Tin is 50° C.), using the nano spray drying technique. […] Based on the HPLC results, the exact amount of encapsulated siRNA was determined. […]
Substance,"% encapsulation ([1]; pH 7, with 0.03 mg DOTAP)","Encapsulated is RNA ([1]; pH 7, with 0.03 mg DOTAP)","% encapsulation ([1]; pH 8, with 0.03 mg DOTAP)","Encapsulated is RNA ([1]; pH 8, with 0.03 mg DOTAP)","% encapsulation ([1]; pH 9, with 0.03 mg DOTAP)","Encapsulated is RNA ([1]; pH 9, with 0.03 mg DOTAP)","% encapsulation ([1]; pH 9, without DOTAP)","Encapsulated is RNA ([1]; pH 9, without DOTAP)","melting temperature, or Tm (50% of siRNA strands denatured) [2]","integrity of free siRNA at basic pH ([3]; 3 hr in aqueous solutions of pH 7, 8 or 9, without glutaraldehyde)",integrity of free siRNA in the presence of the cross linker (glutaraldehyde) [3],integrity of siRNA encapsulated in the primal HSA NSs or secondary NCs [4]
"Chol-GFP-siRNA: Cholesterol modified GFP-siRNA, 21 bp, MW 15,079 Da, SEQ ID NO: 7 and 8, provided by Roche (chain 1 AUAUCAUGGCCGACAAGCATT; chain 2 UGCUUGUCGGCCAUGAUAUTT; 5' cholesteryl, chemistry not fully specified)",39%,76 µg,40%,80 µg,26%,52 µg,16%,32 µg,77 °C,improved resistant to basic pH (8 and 9) compared to GFP-siRNA,highly sensitive,stayed intact
"EGFR-siRNA: Anti Epidermal Growth Factor Receptor siRNA, 21 bp, MW 13,400 Da, SEQ ID NO: 1 and 2, purchased from Ambion (chain 1 CCAUAAAUGCUACGAAUAUTT; chain 2 AUAUUCGUAGCAUUUAUGGAG; a few LNA modifications, positions not given here, lowercase DNA)",,,,,,,,,72 °C,,,
"GFP-siRNA: Anti Green Fluorescent Protein siRNA, 21 bp, MW 14,352 Da, SEQ ID NO: 5 and 6, provided by Roche (chain 1 AUAUCAUGGCCGACAAGCATT; chain 2 UGCUUGUCGGCCAUGAUAUTT; chemistry not fully specified)",43%,86 µg,42%,84 µg,24%,48 µg,9%,18 µg,78 °C,,highly sensitive,stayed intact
